Measured values from BindingDB's records for PubMed 36971365 (Dongguk University, 2023).

Target: Signal transducer and activator of transcription 3 (Homo sapiens, UniProt P40763)
Test: Inhibition of STAT3 (unknown origin) transfected in human HepG2 cells assessed as inhibition of IL-6 induced STAT3 phosphorylation by luciferase reporter gene assay

Sequence of Signal transducer and activator of transcription 3 (P40763 whole entry): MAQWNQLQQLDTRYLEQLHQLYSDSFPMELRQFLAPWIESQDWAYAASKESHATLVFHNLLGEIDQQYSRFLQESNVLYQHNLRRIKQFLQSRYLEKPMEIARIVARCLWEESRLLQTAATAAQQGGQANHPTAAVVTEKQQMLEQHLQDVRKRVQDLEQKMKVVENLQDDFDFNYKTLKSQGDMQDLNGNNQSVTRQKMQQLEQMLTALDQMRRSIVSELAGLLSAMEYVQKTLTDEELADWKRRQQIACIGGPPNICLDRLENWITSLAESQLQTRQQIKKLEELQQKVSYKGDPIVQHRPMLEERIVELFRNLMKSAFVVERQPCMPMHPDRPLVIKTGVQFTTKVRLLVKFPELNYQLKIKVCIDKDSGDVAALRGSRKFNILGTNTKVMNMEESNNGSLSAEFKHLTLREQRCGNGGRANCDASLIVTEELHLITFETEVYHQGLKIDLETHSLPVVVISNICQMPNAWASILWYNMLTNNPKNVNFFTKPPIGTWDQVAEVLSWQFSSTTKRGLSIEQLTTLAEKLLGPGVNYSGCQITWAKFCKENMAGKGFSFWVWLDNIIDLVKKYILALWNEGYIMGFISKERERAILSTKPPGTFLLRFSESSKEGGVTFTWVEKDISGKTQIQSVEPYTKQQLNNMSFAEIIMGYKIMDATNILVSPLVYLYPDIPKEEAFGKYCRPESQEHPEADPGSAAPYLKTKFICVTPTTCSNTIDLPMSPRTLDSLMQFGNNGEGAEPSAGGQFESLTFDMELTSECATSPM

C=C(CCCCC)[C@@H](O)[C@H](C)C(=O)N1C(=O)OC[C@@H]1C(C)C
IC50: 5.9 µM
